Data reported in US9468209B2, “Method for eradicating weeds with derivatives of 3-acetyl-5-sec-butyl-4-hydroxy-3-pyrrolin-2-one” (priority 2012, dated 2016).

Experiments:
Experiment in all cases: Leaf piece damage test
Format in all cases: in vivo
Parameters in all cases: key: 4: The leaf completely dead; 3: Two third of the leaf withered; 2: One half of the leaf withered; 1: Only edge of the leaf withered; 0: Not damage at all
Conditions in all cases: 50 μg/mL, 4 days
[1] = tested on: Crabgrass (Digitaria sanguinalis)
Method: (§1) Compounds 7, 14, 15, 16, 40, 45, 48 and 53 were dissolved individually in small amount of methanol, and diluted with distilled water to concentration of 50 μg/mL. Methanol water solution and pure water were used as control. A piece of 5 mm leaf was taken from the second leaf of weed sample and was treated with the solution three times. 5 pieces of the leaf were prepared for each treatment. The damage data were collected 4 days later. The measurement of damage level is described in the Table 9.
(§2) The measurement of the plant damage was calculated by the formula: Damage Index=Σ(damage level×number of plants)×100/4/number of plants in each treatment.

Commelina bengalensis = tested on: Commelina bengalensis
Method: as §1, §2

Crisium setosum = tested on: Crisium setosum
Method: as §1, §2

Youngia japonica = tested on: Youngia japonica
Method: as §1, §2

Polygonum lapathifolium = tested on: Polygonum lapathifolium
Method: as §1, §2

Ambrosia artemisiifolia = tested on: Ambrosia artemisiifolia
Method: as §1, §2

[2] = tested on: Aster ageratoides var. scaberulus
Method: as §1, §2

Leptochloa chinensis = tested on: Leptochloa chinensis
Method: as §1, §2

[3] = tested on: Barbyardgrass Echinochloa crusgalli
Method: as §1, §2

Fimbristylis miliacea = tested on: Fimbristylis miliacea
Method: as §1, §2

Conyza canademsis = tested on: Conyza canademsis
Method: as §1, §2

Oxalis corniculata = tested on: Oxalis corniculata
Method: as §1, §2

Common polypogon = tested on: Common polypogon
Method: as §1, §2

Big Bristlegass = tested on: Big Bristlegass
Method: as §1, §2

Xanthium sibiricum = tested on: Xanthium sibiricum
Method: as §1, §2

Cayratia japonica = tested on: Cayratia japonica
Method: as §1, §2

[4] = tested on: Green foxtail (Setaria viridis)
Method: as §1, §2

Commelina communis = tested on: Commelina communis
Method: as §1, §2

Polygonum perfoliatum = tested on: Polygonum perfoliatum
Method: as §1, §2

Lapsana apogonoides = tested on: Lapsana apogonoides
Method: as §1, §2

Goose grass = tested on: Goose grass
Method: as §1, §2

Sonchus asper = tested on: Sonchus asper
Method: as §1, §2

| Structure (SMILES) | Damage level [1] | Damage level (Commelina bengalensis) | Damage level (Crisium setosum) | Damage level (Youngia japonica) | Damage level (Polygonum lapathifolium) | Damage level (Ambrosia artemisiifolia) | Damage level [2] | Damage level (Leptochloa chinensis) | Damage level [3] | Damage level (Fimbristylis miliacea) | Damage level (Conyza canademsis) | Damage level (Oxalis corniculata) | Damage level (Common polypogon) | Damage level (Big Bristlegass) | Damage level (Xanthium sibiricum) | Damage level (Cayratia japonica) | Damage level [4] | Damage level (Commelina communis) | Damage level (Polygonum perfoliatum) | Damage level (Lapsana apogonoides) | further results |
| --- | --- | --- | --- | --- | --- | --- | --- | --- | --- | --- | --- | --- | --- | --- | --- | --- | --- | --- | --- | --- | --- |
| CCCCC1NC(=O)C(C(C)=O)=C1O (stereo not shown) [Compound 14] | 4 | 3 | 3 | 3 | 2 | 3 | 3 | 4 | 4 | 2 | 3 | 4 | 3 | 2 | 2 | 2 | 3 | 2 | 2 | 3 | Damage level (Goose grass): 3; Damage level (Sonchus asper): 3 |
| CCCCCC1NC(=O)C(C(C)=O)=C1O (stereo not shown) [Compound 15] | 4 | 3 | 3 | 3 | 2 | 2 | 3 | 4 | 4 | 2 | 3 | 3 | 3 | 2 | 2 | 2 | 4 | 2 | 2 | 2 | Damage level (Goose grass): 3; Damage level (Sonchus asper): 3 |
| CCCCCCC1NC(=O)C(C(C)=O)=C1O (stereo not shown) [Compound 16] | 4 | 3 | 3 | 3 | 2 | 3 | 4 | 4 | 4 | 3 | 3 | 4 | 3 | 3 | 2 | 2 | 3 | 3 | 3 | 3 | Damage level (Goose grass): 3; Damage level (Sonchus asper): 3 |
| CCCC(Cl)C1NC(=O)C(C(C)=O)=C1O (stereo not shown) [Compound 40] | 4 | 3 | 3 | 3 | 2 | 3 | 3 | 4 | 4 | 3 | 3 | 4 | 3 | 3 | 2 | 2 | 3 | 3 | 3 | 3 | Damage level (Goose grass): 4; Damage level (Sonchus asper): 3 |
| CCC(C)C1NC(=O)C(C(=O)CCF)=C1O (stereo not shown) [Compound 44] | 4 | 3 | 3 | 3 | 2 | 4 | 4 | 4 | 4 | 2 | 4 | 4 | 4 | 2 | 2 | 3 | 4 | 2 | 3 | 3 | Damage level (Goose grass): 3; Damage level (Sonchus asper): 3 |
| CCC(C)C1NC(=O)C(C(=O)CCc2cc(Cl)cc(Cl)c2)=C1O (stereo not shown) [Compound 48] | 4 | 4 | 4 | 3 | 2 | 3 | 4 | 4 | 4 | 3 | 4 | 4 | 4 | 3 | 3 | 3 | 4 | 4 | 3 | 4 | Damage level (Goose grass): 3; Damage level (Sonchus asper): 4 |
| CCCC(C#N)C1NC(=O)C(=C(C)O)C1=O (stereo not shown) [Compound 53] | 4 | 3 | 4 | 4 | 3 | 3 | 4 | 4 | 4 | 2 | 3 | 4 | 4 | 3 | 3 | 3 | 3 | 3 | 3 | 3 | Damage level (Goose grass): 4; Damage level (Sonchus asper): 3 |
